In article PMC5012620, “Blocking the Interactions between Calcium-Bound S100A12 Protein and the V Domain of RAGE Using Tranilast” (PLoS ONE, 2016):
Blank lines part the entries; values can stand above or below the molecule they belong to.

Key:
S100A12 = target: T1, S100A12 (Homo sapiens, UniProt P80511); test: fluorescence titration (tranilast emission, excitation […] nm); 1H-15N HSQC NMR titration; format: binding
T1 sequence (P80511 2-92): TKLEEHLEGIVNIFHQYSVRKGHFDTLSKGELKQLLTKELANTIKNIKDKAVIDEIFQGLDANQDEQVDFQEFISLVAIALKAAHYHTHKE

RAGE V domain V domain = target: T2, RAGE V domain V domain (Homo sapiens, UniProt Q15109); test: fluorescence titration (Trp)
T2 chain: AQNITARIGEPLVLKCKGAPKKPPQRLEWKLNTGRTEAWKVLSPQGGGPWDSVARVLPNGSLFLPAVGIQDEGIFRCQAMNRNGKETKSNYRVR

- Kd (S100A12): 6.1 ± 1.4 µM
Molecule: COc1ccc(/C=C/C(=O)Nc2ccccc2C(=O)O)cc1OC [tranilast]

- Kd (RAGE V domain V domain): ~3.1 µM
B1: S100A12 (protein)
chain: T1 sequence (P80511 2-92)
modifications: Ca2+
